Test results: patent US10189845B2, “4,6-substituted-pyrazolo[1,5-a]pyrazines as janus kinase inhibitors” (ARRAY BIOPHARMA INC., priority 2014, dated 2019)
Where a name gives a salt, the structure may show the parent alone. Read-outs that look alike come from different tables or passages of the source.

Columns and labels:
Type in all cases: biochemical
JAK3 = JAK3 (Homo sapiens (Human), UniProt P52333); experiment: JAK3 Inhibition Assay (Example D, Omnia kinase fluorescence peptide substrate assay)
Chain of JAK3 (P52333 whole entry): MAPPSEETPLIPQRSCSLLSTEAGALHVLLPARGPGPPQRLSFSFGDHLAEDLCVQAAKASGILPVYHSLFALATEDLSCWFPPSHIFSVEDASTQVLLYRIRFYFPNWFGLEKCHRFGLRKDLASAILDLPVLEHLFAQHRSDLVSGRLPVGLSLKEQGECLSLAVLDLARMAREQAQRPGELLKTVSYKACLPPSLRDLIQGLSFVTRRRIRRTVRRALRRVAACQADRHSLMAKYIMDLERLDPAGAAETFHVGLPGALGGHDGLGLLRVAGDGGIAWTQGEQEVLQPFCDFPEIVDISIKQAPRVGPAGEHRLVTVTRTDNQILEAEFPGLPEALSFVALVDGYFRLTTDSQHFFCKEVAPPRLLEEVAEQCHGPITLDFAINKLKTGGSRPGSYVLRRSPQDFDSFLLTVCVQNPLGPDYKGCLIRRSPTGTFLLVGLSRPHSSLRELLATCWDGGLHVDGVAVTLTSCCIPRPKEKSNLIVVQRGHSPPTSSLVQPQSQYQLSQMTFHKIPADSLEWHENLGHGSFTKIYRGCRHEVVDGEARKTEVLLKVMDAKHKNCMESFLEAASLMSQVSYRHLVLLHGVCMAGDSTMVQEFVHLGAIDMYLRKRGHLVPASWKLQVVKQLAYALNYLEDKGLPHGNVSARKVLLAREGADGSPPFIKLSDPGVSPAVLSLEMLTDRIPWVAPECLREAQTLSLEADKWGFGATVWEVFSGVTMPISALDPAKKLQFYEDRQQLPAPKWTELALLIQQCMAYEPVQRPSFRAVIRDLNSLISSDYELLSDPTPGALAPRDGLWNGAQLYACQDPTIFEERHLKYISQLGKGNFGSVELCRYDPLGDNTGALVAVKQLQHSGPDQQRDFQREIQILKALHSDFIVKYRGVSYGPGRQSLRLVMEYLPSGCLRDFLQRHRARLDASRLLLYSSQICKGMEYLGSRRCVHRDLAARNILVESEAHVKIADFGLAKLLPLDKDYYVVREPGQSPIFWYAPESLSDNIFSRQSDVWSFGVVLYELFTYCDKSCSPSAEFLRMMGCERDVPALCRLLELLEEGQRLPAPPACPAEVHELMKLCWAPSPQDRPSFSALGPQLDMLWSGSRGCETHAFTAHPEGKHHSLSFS
In short: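 Mixture held 2 nM JAK3, 1 mM ATP and 10 μM Omnia Y7 peptide in 25 mM HEPES pH 7.4, 10 mM MgCl2, 0.01% Triton X-100, 1 mM DTT, 2% DMSO final. Sox fluorescence (ex 360/em 485 nm) was read every 50 s for 45 min. IC50 came from a 4-parameter logistic fit of percent of control.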

Human Tyk2 kinase domain = Human Tyk2 kinase domain (Homo sapiens (Human), UniProt P29597); experiment: Tyk2 Inhibition Assay (Example A, Omnia kinase fluorescence peptide substrate assay); conditions: TYK2 Enzyme IC50 1 mM ATP, averaged IC50 ranges
Chain of Human Tyk2 kinase domain (P29597 886-1187): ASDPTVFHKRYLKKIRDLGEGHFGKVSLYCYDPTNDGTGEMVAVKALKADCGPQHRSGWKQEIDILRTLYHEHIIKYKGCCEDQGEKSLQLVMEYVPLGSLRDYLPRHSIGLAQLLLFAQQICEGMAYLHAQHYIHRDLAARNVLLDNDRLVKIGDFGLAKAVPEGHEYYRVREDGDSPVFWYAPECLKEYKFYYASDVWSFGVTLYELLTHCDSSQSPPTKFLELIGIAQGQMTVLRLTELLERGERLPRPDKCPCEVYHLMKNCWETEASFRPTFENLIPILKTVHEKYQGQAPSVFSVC
In short: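 Omnia Sox-peptide kinetic fluorescence assay (ex 360/em 485 nm, read every 50 s for 45 min) with 1 nM human Tyk2 kinase domain (aa 886–1187, His tag cleaved, baculovirus-expressed), 1 mM ATP, 8 μM Omnia Y12 peptide, in 25 mM HEPES pH 7.4, 10 mM MgCl2, 0.01% Triton X-100, 1 mM DTT, 2% DMSO. IC50 from 4-parameter logistic fit of percent of control.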

JAK2 = JAK2 (Homo sapiens (Human), UniProt O60674); experiment: JAK2 Inhibition Assay (Example C, Omnia kinase fluorescence peptide substrate assay); conditions: JAK2 Enzyme IC50 1 mM ATP, averaged IC50 ranges
Chain of JAK2 (O60674 whole entry): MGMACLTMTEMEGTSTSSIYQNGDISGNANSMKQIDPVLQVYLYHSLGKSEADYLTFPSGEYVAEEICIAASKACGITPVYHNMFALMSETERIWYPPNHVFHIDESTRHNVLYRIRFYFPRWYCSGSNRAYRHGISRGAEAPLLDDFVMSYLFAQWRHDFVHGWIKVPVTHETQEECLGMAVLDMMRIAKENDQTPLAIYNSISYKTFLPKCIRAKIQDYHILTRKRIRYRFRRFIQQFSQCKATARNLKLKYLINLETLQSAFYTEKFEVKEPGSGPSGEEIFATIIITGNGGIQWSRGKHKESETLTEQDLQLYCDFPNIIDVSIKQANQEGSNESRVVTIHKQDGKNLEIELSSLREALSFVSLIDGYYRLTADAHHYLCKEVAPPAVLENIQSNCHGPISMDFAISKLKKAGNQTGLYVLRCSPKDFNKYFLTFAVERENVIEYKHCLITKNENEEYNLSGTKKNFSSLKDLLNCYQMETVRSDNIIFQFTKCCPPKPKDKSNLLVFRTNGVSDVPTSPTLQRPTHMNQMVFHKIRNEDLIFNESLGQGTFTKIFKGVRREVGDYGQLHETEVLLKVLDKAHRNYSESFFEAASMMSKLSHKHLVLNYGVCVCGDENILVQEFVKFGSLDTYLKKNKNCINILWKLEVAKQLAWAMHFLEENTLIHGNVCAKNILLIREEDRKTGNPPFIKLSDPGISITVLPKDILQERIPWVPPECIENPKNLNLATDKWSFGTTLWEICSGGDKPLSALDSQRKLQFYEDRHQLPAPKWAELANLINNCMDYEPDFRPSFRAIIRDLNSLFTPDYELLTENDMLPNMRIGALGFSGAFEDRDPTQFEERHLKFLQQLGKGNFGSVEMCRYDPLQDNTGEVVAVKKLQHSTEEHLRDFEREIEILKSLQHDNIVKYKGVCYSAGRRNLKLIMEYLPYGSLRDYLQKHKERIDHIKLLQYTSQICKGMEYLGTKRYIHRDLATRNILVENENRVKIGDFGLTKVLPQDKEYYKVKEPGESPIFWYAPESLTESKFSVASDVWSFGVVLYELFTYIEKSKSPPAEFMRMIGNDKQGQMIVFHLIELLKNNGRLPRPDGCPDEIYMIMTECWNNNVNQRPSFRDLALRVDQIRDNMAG
In short: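 4 nM JAK2 with 1 mM ATP and 10 μM Omnia Y7 peptide in 25 mM HEPES pH 7.4, 10 mM MgCl2, 0.01% Triton X-100, 1 mM DTT, 2% DMSO. Sox fluorescence (ex 360/em 485 nm) read every 50 s for 45 min; IC50 from 4-parameter fit of percent of control.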

JAK1 = JAK1 (Homo sapiens (Human), UniProt P23458); experiment: JAK1 Inhibition Assay (Example B, Omnia kinase fluorescence peptide substrate assay)
Chain of JAK1 (P23458 whole entry): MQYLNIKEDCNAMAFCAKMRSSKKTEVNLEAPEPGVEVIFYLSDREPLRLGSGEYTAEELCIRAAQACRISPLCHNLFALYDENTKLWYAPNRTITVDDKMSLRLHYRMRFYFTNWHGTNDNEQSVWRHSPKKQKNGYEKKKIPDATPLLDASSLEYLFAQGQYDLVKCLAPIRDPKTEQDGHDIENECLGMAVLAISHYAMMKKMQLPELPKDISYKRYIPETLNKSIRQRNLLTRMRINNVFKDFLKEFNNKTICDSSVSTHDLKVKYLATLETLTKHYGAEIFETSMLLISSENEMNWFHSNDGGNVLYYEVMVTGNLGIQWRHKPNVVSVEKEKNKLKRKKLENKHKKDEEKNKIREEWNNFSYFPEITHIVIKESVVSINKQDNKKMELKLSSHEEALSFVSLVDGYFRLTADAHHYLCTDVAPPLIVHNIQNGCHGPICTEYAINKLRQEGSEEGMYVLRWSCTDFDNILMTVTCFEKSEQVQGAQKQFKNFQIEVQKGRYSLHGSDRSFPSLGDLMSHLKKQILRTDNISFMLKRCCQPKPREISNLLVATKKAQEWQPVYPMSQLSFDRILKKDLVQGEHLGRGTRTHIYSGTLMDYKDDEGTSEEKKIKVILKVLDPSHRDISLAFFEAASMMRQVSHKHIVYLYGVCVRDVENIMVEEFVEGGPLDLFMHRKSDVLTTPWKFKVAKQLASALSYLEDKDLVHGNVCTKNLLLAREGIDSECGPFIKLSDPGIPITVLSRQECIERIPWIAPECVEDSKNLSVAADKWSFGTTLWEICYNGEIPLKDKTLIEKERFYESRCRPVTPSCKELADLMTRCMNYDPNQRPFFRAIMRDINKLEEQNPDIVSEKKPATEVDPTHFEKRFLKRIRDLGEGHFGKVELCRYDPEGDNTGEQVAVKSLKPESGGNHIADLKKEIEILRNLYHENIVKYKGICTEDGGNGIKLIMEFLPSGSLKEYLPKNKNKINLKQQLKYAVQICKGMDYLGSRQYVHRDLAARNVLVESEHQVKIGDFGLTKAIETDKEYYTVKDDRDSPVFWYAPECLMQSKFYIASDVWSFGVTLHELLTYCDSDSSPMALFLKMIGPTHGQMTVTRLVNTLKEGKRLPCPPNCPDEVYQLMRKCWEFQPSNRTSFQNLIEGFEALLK
In short: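 Recombinant human JAK1 (12.5 nM) with 1 mM ATP and 8 μM Omnia Y12 Sox-peptide in 25 mM HEPES pH 7.4, 10 mM MgCl2, 0.01% Triton X-100, 1 mM DTT, 2% DMSO final. Phosphorylation read kinetically (ex 360/em 485 nm, 45 min); IC50 from 4-parameter fit of percent of control.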

[1] = JAK1 Enzyme IC50 1 mM ATP, 1 mM ATP, averaged IC50 ranges

Row | IC50 (JAK3) [nM] | IC50 (Human Tyk2 kinase domain) [nM] | IC50 (JAK2) [nM] | IC50 (JAK1) [nM] | IC50 (JAK1; [1]) [nM] | Structure (SMILES)
1 | 1000 to 10000 | 10 to 100 | 10 to 100 | 100 to 1000 | – | CC[C@H](C1CC1)n1cc(-c2nc(-c3cnn(C[C@H](C)O)c3)cn3nccc23)cn1 [Example 218, (S)-1-(4-(4-(1-((R)-1-cyclopropylpropyl)-1H-pyrazol-4-yl)pyrazolo[1,5-a]pyrazin-6-yl)-1H-pyrazol-1-yl)propan-2-ol]
2 | 1000 to 10000 | 10 to 100 | 10 to 100 | – | 10 to 100 | CCC(CC)n1cc(-c2nc(-c3cnn([C@H](C)[C@H](C)O)c3)cn3nccc23)cn1 (single isomer, unassigned) [Example 158]
3 | 1000 to 10000 | 100 to 1000 | 100 to 1000 | – | 1000 to 10000 | CCC(n1cc(-c2nc(-c3cnn(C[C@@H](O)CO)c3)cn3nccc23)cn1)C(F)(F)F (stereo partly drawn) [Example 193, (2R)-3-(4-(4-(1-(1,1,1-trifluorobutan-2-yl)-1H-pyrazol-4-yl)pyrazol[1,5-a]pyrazin-6-yl)-1H-pyrazol-1-yl)propane-1,2-diol]
4 | 1000 to 10000 | 10 to 100 | 10 to 100 | 100 to 1000 | – | CCC(CC)n1cc(-c2nc(-c3cnn(C4CN(C(=O)[C@H](C)O)C4)c3)cn3nccc23)cn1 [Example 173, (S)-2-hydroxy-1-(3-(4-(4-(1-(pentan-3-yl)-1H-pyrazol-4-yl)pyrazolo[1,5-a]pyrazin-6-yl)-1H-pyrazol-1-yl)azetidin-1-yl)propan-1-one]
5 | 1000 to 10000 | 10 to 100 | 10 to 100 | 100 to 1000 | – | CCC(CC)n1cc(-c2nc(-c3cnn(C4CN(C(=O)CNC)C4)c3)cn3nccc23)cn1 [Example 187, 2-(methylamino)-1-(3-(4-(4-(1-(pentan-3-yl)-1H-pyrazol-4-yl)pyrazolo[1,5-a]pyrazin-6-yl)-1H-pyrazol-1-yl)azetidin-1-yl)ethanone bis(2,2,2-trifluoroacetate)]
6 | 100 to 1000 | 10 to 100 | 10 to 100 | – | 10 to 100 | CCC(c1ccccc1)n1cc(-c2nc(-c3cnn(C[C@@H](O)CO)c3)cn3nccc23)cn1 (stereo partly drawn) [Example 66, (2R)-3-(4-(4-(1-(1-phenylpropyl)-1H-pyrazol-4-yl)pyrazolo[1,5-a]pyrazin-6-yl)-1H-pyrazol-1-yl)propane-1,2-diol]
7 | 1000 to 10000 | 10 to 100 | 10 to 100 | 100 to 1000 | – | CCC(CC)n1cc(-c2nc(-c3cnn(CCN4CC[C@H](OC)C4)c3)cn3nccc23)cn1 [Example 137, (S)-6-(1-(2-(3-methoxypyrrolidin-1-yl)ethyl)-1H-pyrazol-4-yl)-4-(1-(pentan-3-yl)-1H-pyrazol-4-yl)pyrazolo[1,5-a]pyrazine]
8 | 1000 to 10000 | 10 to 100 | 10 to 100 | 10 to 100 | – | CCC(CC)n1cc(-c2nc(-c3cnn(C[C@H]4CCC(=O)N4)c3)cn3nccc23)cn1 [Example 18, (R)-5-((4-(4-(1-(pentan-3-yl)-1H-pyrazol-4-yl)pyrazolo[1,5-a]pyrazin-6-yl)-1H-pyrazol-1-yl)methyl)pyrrolidin-2-one]
9 | 1000 to 10000 | 10 to 100 | 10 to 100 | 1000 to 10000 | – | C[C@@H]1CCCC[C@H]1n1cc(-c2nc(-c3cnn(C(CO)CO)c3)cn3nccc23)cn1 (single isomer, unassigned) [Example 150]
10 | 1000 to 10000 | 10 to 100 | 10 to 100 | 100 to 1000 | – | CCC(CC)n1cc(-c2nc(-c3cnn(C[C@H](C)O)c3)cn3nccc23)cn1 [Example 110, (S)-1-(4-(4-(1-(pentan-3-yl)-1H-pyrazol-4-yl)pyrazolo[1,5-a]pyrazin-6-yl)-1H-pyrazol-1-yl)propan-2-ol]
11 | 1000 to 10000 | 10 to 100 | 10 to 100 | – | 100 to 1000 | CCC(CC)n1cc(-c2nc(-c3cnn(C[C@@H](CO)N(C)C)c3)cn3nccc23)cn1 [Example 129, (S)-2-(dimethylamino)-3-(4-(4-(1-(pentan-3-yl)-1H-pyrazol-4-yl)pyrazolo[1,5-a]pyrazin-6-yl)-1H-pyrazol-1-yl)propan-1-ol]
12 | 1000 to 10000 | 10 to 100 | 10 to 100 | 1000 to 10000 | – | CCC(CC)n1cc(-c2nc(-c3cnn(CC4CCS(=O)(=O)CC4)c3)cn3nccc23)cn1 [Example 11, 4-((4-(4-(1-(pentan-3-yl)-1H-pyrazol-4-yl)pyrazolo[1,5-a]pyrazin-6-yl)-1H-pyrazol-1-yl)methyl)tetrahydro-2H-thiopyran 1,1-dioxide]
13 | 1000 to 10000 | 10 to 100 | 10 to 100 | 1000 to 10000 | – | CCC(CC)n1cc(-c2nc(-c3cnn(CCN4CC[C@@H](O)C4)c3)cn3nccc23)cn1 [Example 140, (R)-1-(2-(4-(4-(1-(pentan-3-yl)-1H-pyrazol-4-yl)pyrazolo[1,5-a]pyrazin-6-yl)-1H-pyrazol-1-yl)ethyl)pyrrolidin-3-ol]
14 | 1000 to 10000 | 100 to 1000 | 100 to 1000 | – | 1000 to 10000 | C[C@@H](CC(F)(F)F)n1cc(-c2nc(-c3cnn(C[C@@H](O)CO)c3)cn3nccc23)cn1 [Example 195, (R)-3-(4-(4-(1-((S)-4,4,4-trifluorobutan-2-yl)-1H-pyrazol-4-yl)pyrazolo[1,5-a]pyrazin-6-yl)-1H-pyrazol-1-yl)propane-1,2-diol hydrochloride]
15 | 1000 to 10000 | 10 to 100 | 10 to 100 | – | 100 to 1000 | CCC(CC)n1cc(-c2nc(-c3cnn([C@@H]4CCC[C@H]4O)c3)cn3nccc23)cn1 (single isomer, unassigned) [Example 153]
16 | 1000 to 10000 | 10 to 100 | 10 to 100 | – | 100 to 1000 | CCC(CC)n1cc(-c2nc(-c3cnn(C[C@H](O)[C@H](C)O)c3)cn3nccc23)cn1 [Example 65, (2S,3S)-1-(4-(4-(1-(pentan-3-yl)-1H-pyrazol-4-yl)pyrazolo[1,5-a]pyrazin-6-yl)-1H-pyrazol-1-yl)butane-2,3-diol]
17 | 1000 to 10000 | 10 to 100 | 10 to 100 | – | 100 to 1000 | CCC(CC)n1cc(-c2nc(-c3cnn(C[C@H](CO)N(C)C)c3)cn3nccc23)cn1 [Example 131, (R)-2-(dimethylamino)-3-(4-(4-(1-(pentan-3-yl)-1H-pyrazol-4-yl)pyrazolo[1,5-a]pyrazin-6-yl)-1H-pyrazol-1-yl)propan-1-ol]
18 | 1000 to 10000 | 10 to 100 | 10 to 100 | 100 to 1000 | – | CCC(CC)n1cc(-c2nc(-c3cnn(C(CO)CO)c3)cn3nccc23)cn1 [Example 81, 2-(4-(4-(1-(pentan-3-yl)-1H-pyrazol-4-yl)pyrazolo[1,5-a]pyrazin-6-yl)-1H-pyrazol-1-yl)propane-1,3-diol]
19 | 1000 to 10000 | 10 to 100 | 10 to 100 | – | 100 to 1000 | CCC(CC)n1cc(-c2nc(-c3cnn(CC[C@@H](O)CO)c3)cn3nccc23)cn1 [Example 64, (R)-4-(4-(4-(1-(pentan-3-yl)-1H-pyrazol-4-yl)pyrazolo[1,5-a]pyrazin-6-yl)-1H-pyrazol-1-yl)butane-1,2-diol]
20 | 1000 to 10000 | 100 to 1000 | 10 to 100 | 100 to 1000 | – | CCC[C@H](C)n1cc(-c2nc(-c3cnn(C(CO)CO)c3)cn3nccc23)cn1 [Example 82, (S)-2-(4-(4-(1-(pentan-2-yl)-1H-pyrazol-4-yl)pyrazolo[1,5-a]pyrazin-6-yl)-1H-pyrazol-1-yl)propane-1,3-diol]
21 | 1000 to 10000 | 10 to 100 | 10 to 100 | 100 to 1000 | – | CCC(CC)n1cc(-c2nc(-c3cnn(C[C@@H](O)CCO)c3)cn3nccc23)cn1 (single isomer, unassigned) [Example 200]

Row | Structure (SMILES) | IC50 (JAK3) [nM] | IC50 (Human Tyk2 kinase domain) [nM] | IC50 (JAK2) [nM] | IC50 (JAK1) [nM] | IC50 (JAK1; [1]) [nM]
22 | C[C@H](CC(F)(F)F)n1cc(-c2nc(-c3cnn(C[C@@H](O)CO)c3)cn3nccc23)cn1 [Example 194, (R)-3-(4-(4-(1-((R)-4,4,4-trifluorobutan-2-yl)-1H-pyrazol-4-yl)pyrazolo[1,5-a]pyrazin-6-yl)-1H-pyrazol-1-yl)propane-1,2-diol hydrochloride] | 1000 to 10000 | 100 to 1000 | 100 to 1000 | – | 1000 to 10000
23 | CC[C@@H](CC1CC1)n1cc(-c2nc(-c3cnn(C[C@@H](O)CO)c3)cn3nccc23)cn1 [Example 205, (R)-3-(4-(4-(1-((S)-1-cyclopropylbutan-2-yl)-1H-pyrazol-4-yl)pyrazolo[1,5-a]pyrazin-6-yl)-1H-pyrazol-1-yl)propane-1,2-diol] | 1000 to 10000 | 10 to 100 | 10 to 100 | – | 100 to 1000
